The numbers were not newly measured in US8338382B2, “Method of treating impaired mitochondrial function” (priority 1997, dated 2012), which cites them from elsewhere.

In the data set the test system is depressed patients. The note with it: literature (Sabelli 2002, 2000).

Turning to `NCCc1ccccc1` [PEA, 2-Phenylethylamine], the “share of depressed patients in whom PEA is effective / controls depression” value is recorded as 60% and the “toxic effects, tolerance or abuse” value is on record as “no toxic effects, tolerance or abuse”.
